Data from patent publication EP2776398B1, “SUBSTITUTED PYRAZOLYL-BASED UREA DERIVATIVES AS VANILLOID RECEPTOR LIGANDS” (Medifron DBT Inc., priority 2011, dated 2013).

Molecular target: T1, vanilloid receptor 1 (VR1/TRPV1 receptor) (Homo sapiens, UniProt Q8NER1)
T1 construct: expressed in transfected cells; host or cells: CHO K1 cells (ECACC), stably transfected
Assay: Functional testing on vanilloid receptor 1: FLIPR Ca2+ influx assay against capsaicin (Cap) in transfected CHO K1 cells (pharmacological method II); as to Ki: 100 nM capsaicin
Type: cell-based
Set-up: key to (f) Ki (human being) [nM] Cap: agonist classification: AG = agonist
Conditions: @ 1µM; human VR1 in CHO K1 cells; capsaicin; relative to maximum inhibition with 10 µM capsazepine; read-out: inhibition (as a percentage), printed in column (f) Ki (human being) [nM] Cap
Description: […]

T1 sequence (Q8NER1 whole entry): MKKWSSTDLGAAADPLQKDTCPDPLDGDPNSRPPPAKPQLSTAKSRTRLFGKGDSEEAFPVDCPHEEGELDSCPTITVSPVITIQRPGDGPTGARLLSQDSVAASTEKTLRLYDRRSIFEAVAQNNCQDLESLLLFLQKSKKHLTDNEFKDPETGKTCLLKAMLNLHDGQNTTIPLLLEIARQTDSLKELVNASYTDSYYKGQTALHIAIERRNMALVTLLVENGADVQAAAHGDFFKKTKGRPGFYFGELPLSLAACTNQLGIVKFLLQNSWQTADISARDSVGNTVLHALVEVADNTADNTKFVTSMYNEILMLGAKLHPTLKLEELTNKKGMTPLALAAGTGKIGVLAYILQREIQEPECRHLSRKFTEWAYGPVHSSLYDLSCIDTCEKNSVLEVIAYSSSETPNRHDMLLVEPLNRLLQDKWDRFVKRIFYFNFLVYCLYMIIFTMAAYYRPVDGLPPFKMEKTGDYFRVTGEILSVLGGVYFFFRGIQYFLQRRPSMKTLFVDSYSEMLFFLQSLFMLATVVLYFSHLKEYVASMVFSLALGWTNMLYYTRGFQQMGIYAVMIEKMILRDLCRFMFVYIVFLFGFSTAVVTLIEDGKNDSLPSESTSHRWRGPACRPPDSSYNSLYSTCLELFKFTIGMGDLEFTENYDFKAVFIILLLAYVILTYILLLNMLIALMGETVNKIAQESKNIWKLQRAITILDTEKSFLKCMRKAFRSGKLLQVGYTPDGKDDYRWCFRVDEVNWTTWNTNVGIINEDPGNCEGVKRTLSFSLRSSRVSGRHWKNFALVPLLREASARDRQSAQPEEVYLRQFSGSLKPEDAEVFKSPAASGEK

| inhibition at 1 µM [%] | Compound |
| --- | --- |
| 34 | O=C(NCc1cc(C(F)(F)F)nn1-c1cccc(F)c1)Nc1ccc(OCC(O)CO)cc1 (stereo not shown) [A26, 1-[4-(2,3-Dihydroxy-propoxy)-phenyl]-3-[[2-(3-fluorophenyl)-5-(trifluoromethyl)-2H-pyrazol-3-yl]-methyl]-urea] |

Same assay, conditions: human VR1 in CHO K1 cells; AG printed instead of a Ki

| (f) Ki (human being) [nM] Cap: agonist classification | Compound |
| --- | --- |
| AG | COc1c(F)cc(C(C)C(=O)NCc2cc(C(C)(C)C)nn2-c2ccc(F)c(Cl)c2)cc1F (stereo not shown) [A5, N-[[5-tert-Butyl-2-(3-chloro-4-fluoro-phenyl)-2H-pyrazol-3-yl]-methyl]-2-(3,5-difluoro-4-methoxy-phenyl)-propionamide] |
| AG | CC(C)(C)c1cc(CNC(=O)Nc2cc(F)c(O)c(F)c2)n(-c2cccc(Cl)c2)n1 [A11, 1-[[5-tert-Butyl-2-(3-chlorophenyl)-2H-pyrazol-3-yl]-methyl]-3-(3,5-difluoro-4-hydroxy-phenyl)-urea] |
| AG | COc1ccc(NC(=O)NCc2cc(C(C)(C)C)nn2-c2cccc(Cl)c2)cc1OC [A13, 1-[[5-tert-Butyl-2-(3-chlorophenyl)-2H-pyrazol-3-yl]-methyl]-3-(3,4-dimethoxyphenyl)-urea] |
| AG | COc1cc(NC(=O)NCc2cc(C(F)(F)F)nn2-c2cccc(Cl)c2)ccc1O [A15, 1-[[2-(3-Chlorophenyl)-5-(trifluoromethyl)-2H-pyrazol-3-yl]-methyl]-3-(4-hydroxy-3-methoxy-phenyl)-urea] |
| AG | COc1ccc(NC(=O)NCc2cc(C(F)(F)F)nn2-c2cccc(Cl)c2)cc1O [A16, 1-[[2-(3-Chlorophenyl)-5-(trifluoromethyl)-2H-pyrazol-3-yl]-methyl]-3-(3-hydroxy-4-methoxy-phenyl)-urea] |
| AG | COCCOc1ccc(NC(=O)NCc2cc(C(C)(C)C)nn2-c2cccc(Cl)c2)cc1F [A17, 1-[[5-tert-Butyl-2-(3-chlorophenyl)-2H-pyrazol-3-yl]-methyl]-3-[3-fluoro-4-(2-methoxy-ethoxy)-phenyl]-urea] |
| AG | CC(C)(C)c1cc(CNC(=O)Nc2ccc(OCC(O)CO)c(F)c2)n(-c2cccc(Cl)c2)n1 (stereo not shown) [A24, 1-[[5-tert-Butyl-2-(3-chlorophenyl)-2H-pyrazol-3-yl]-methyl]-3-[4-(2,3-dihydroxy-propoxy)-3-fluoro-phenyl]-urea] |
| AG | CC(C(=O)NCc1cc(C(C)(C)C)nn1-c1cccc(Cl)c1)c1ccc(CO)c(F)c1 (stereo not shown) [A32, N-[[5-tert-Butyl-2-(3-chlorophenyl)-2H-pyrazol-3-yl]-methyl]-2-[3-fluoro-4-(hydroxymethyl)-phenyl]-propionamide] |

Same assay, conditions: read-out: (f) Ki (human being) [nM] Cap

| Ki [nM] | Compound |
| --- | --- |
| 12 | COc1c(F)cc(CC(=O)NCc2cc(C(C)(C)C)nn2-c2cccc(Cl)c2)cc1F [A1, N-[[5-tert-Butyl-2-(3-chlorophenyl)-2H-pyrazol-3-yl]-methyl]-2-(3,5-difluoro-4-methoxy-phenyl)-acetamide] |
| 33 | COc1c(F)cc(CC(=O)NCc2cc(C(F)(F)F)nn2-c2cccc(Cl)c2)cc1F [A2, N-[[2-(3-Chlorophenyl)-5-(trifluoromethyl)-2H-pyrazol-3-yl]-methyl]-2-(3,5-difluoro-4-methoxy-phenyl)-acetamide] |
| 6 | COc1c(F)cc(C(C)C(=O)NCc2cc(C3CC3)nn2-c2cccc(Cl)c2)cc1F (stereo not shown) [A3, N-[[2-(3-Chlorophenyl)-5-cyclopropyl-2H-pyrazol-3-yl]-methyl]-2-(3,5-difluoro-4-methoxy-phenyl)-propionamide] |
| 2 | COc1c(F)cc(C(C)C(=O)NCc2cc(C(C)(C)C)nn2-c2cccc(Cl)c2)cc1F (stereo not shown) [A4, N-[[5-tert-Butyl-2-(3-chlorophenyl)-2H-pyrazol-3-yl]-methyl]-2-(3,5-difluoro-4-methoxy-phenyl)-propionamide] |
| 14 | COc1c(F)cc(CC(=O)NCc2cc(C(C)(C)C)nn2-c2ccc(F)c(Cl)c2)cc1F [A6, N-[[5-tert-Butyl-2-(3-chloro-4-fluoro-phenyl)-2H-pyrazol-3-yl]-methyl]-2-(3,5-difluoro-4-methoxy-phenyl)-acetamide] |
| 26 | COc1c(F)cc(CC(=O)NCc2cc(C(F)(F)F)nn2-c2ccc(F)c(Cl)c2)cc1F [A7, N-[[2-(3-Chloro-4-fluoro-phenyl)-5-(trifluoromethyl)-2H-pyrazol-3-yl]-methyl]-2-(3,5-difluoro-4-methoxy-phenyl)-acetamide] |
| 55 | COc1c(F)cc(NC(=O)NCc2cc(C(F)(F)F)nn2-c2cccc(Cl)c2)cc1F [A8, 1-[[2-(3-Chlorophenyl)-5-(trifluoromethyl)-2H-pyrazol-3-yl]-methyl]-3-(3,5-difluoro-4-methoxy-phenyl)-urea] |
| 7 | COc1c(F)cc(C(C)C(=O)NCc2cc(C(F)(F)F)nn2-c2ccc(F)c(Cl)c2)cc1F (stereo not shown) [A9, N-[[2-(3-Chloro-4-fluoro-phenyl)-5-(trifluoromethyl)-2H-pyrazol-3-yl]-methyl]-2-(3,5-difluoro-4-methoxy-phenyl)-propionamide] |
| 1 | CC(C(=O)NCc1cc(C(F)(F)F)nn1-c1cccc(Cl)c1)c1cc(F)c(O)c(F)c1 (stereo not shown) [A10, N-[[2-(3-Chlorophenyl)-5-(trifluoromethyl)-2H-pyrazol-3-yl]-methyl]-2-(3,5-difluoro-4-hydroxy-phenyl)-propionamide] |
| 8 | O=C(NCc1cc(C(F)(F)F)nn1-c1cccc(Cl)c1)Nc1cc(F)c(O)c(F)c1 [A12, 1-[[2-(3-Chlorophenyl)-5-(trifluoromethyl)-2H-pyrazol-3-yl]-methyl]-3-(3,5-difluoro-4-hydroxy-phenyl)-urea] |
| 25 | COc1ccc(NC(=O)NCc2cc(C(F)(F)F)nn2-c2cccc(Cl)c2)cc1OC [A14, 1-[[2-(3-Chlorophenyl)-5-(trifluoromethyl)-2H-pyrazol-3-yl]-methyl]-3-(3,4-dimethoxyphenyl)-urea] |
| 68 | COCCOc1ccc(NC(=O)NCc2cc(C(F)(F)F)nn2-c2cccc(Cl)c2)cc1F [A18, 1-[[2-(3-Chlorophenyl)-5-(trifluoromethyl)-2H-pyrazol-3-yl]-methyl]-3-[3-fluoro-4-(2-methoxy-ethoxy)-phenyl]-urea] |
| 13 | CC(C)(C)c1cc(CNC(=O)Nc2ccc(OCCO)c(F)c2)n(-c2cccc(Cl)c2)n1 [A19, 1-[[5-tert-Butyl-2-(3-chlorophenyl)-2H-pyrazol-3-yl]-methyl]-3-[3-fluoro-4-(2-hydroxy-ethoxy)-phenyl]-urea] |
| 37 | O=C(NCc1cc(C(F)(F)F)nn1-c1cccc(Cl)c1)Nc1ccc(OCCO)c(F)c1 [A20, 1-[[2-(3-Chlorophenyl)-5-(trifluoromethyl)-2H-pyrazol-3-yl]-methyl]-3-[3-fluoro-4-(2-hydroxy-ethoxy)-phenyl]-urea] |
| 7 | O=C(NCc1cc(C(F)(F)F)nn1-c1cccc(F)c1)Nc1ccc(OCCO)c(F)c1 [A21, 1-[3-Fluoro-4-(2-hydroxy-ethoxy)-phenyl]-3-[[2-(3-fluorophenyl)-5-(trifluoromethyl)-2H-pyrazol-3-yl]-methyl]-urea] |
| 40 | O=C(NCc1cc(C(F)(F)F)nn1-c1ccc(F)c(Cl)c1)Nc1ccc(OCCO)c(F)c1 [A22, 1-[[2-(3-Chloro-4-fluoro-phenyl)-5-(trifluoromethyl)-2H-pyrazol-3-yl]-methyl]-3-[3-fluoro-4-(2-hydroxy-ethoxy)-phenyl]-urea] |
| 35 | O=C(NCc1cc(C(F)(F)F)nn1-c1cccc(Cl)c1)Nc1ccc(OCC(O)CO)cc1 (stereo not shown) [A23, 1-[[2-(3-Chlorophenyl)-5-(trifluoromethyl)-2H-pyrazol-3-yl]-methyl]-3-[4-(2,3-dihydroxy-propoxy)-phenyl]-urea] |
| 65 | O=C(NCc1cc(C(F)(F)F)nn1-c1cccc(Cl)c1)Nc1ccc(OCC(O)CO)c(F)c1 (stereo not shown) [A25, 1-[[2-(3-Chlorophenyl)-5-(trifluoromethyl)-2H-pyrazol-3-yl]-methyl]-3-[4-(2,3-dihydroxy-propoxy)-3-fluoro-phenyl]-urea] |
| 1 | CC(C)(C)c1cc(CNC(=O)Nc2ccc(CO)cc2)n(-c2cccc(Cl)c2)n1 [A27, 1-[[5-tert-Butyl-2-(3-chlorophenyl)-2H-pyrazol-3-yl]-methyl]-3-[4-(hydroxymethyl)-phenyl]-urea] |
| 22 | O=C(NCc1cc(C(F)(F)F)nn1-c1cccc(Cl)c1)Nc1ccc(CO)cc1 [A28, 1-[[2-(3-Chlorophenyl)-5-(trifluoromethyl)-2H-pyrazol-3-yl]-methyl]-3-[4-(hydroxymethyl)-phenyl]-urea] |
| 1 | CC(C)(C)c1cc(CNC(=O)Cc2ccc(CO)c(F)c2)n(-c2cccc(Cl)c2)n1 [A29, N-[[5-tert-Butyl-2-(3-chlorophenyl)-2H-pyrazol-3-yl]-methyl]-2-[3-fluoro-4-(hydroxymethyl)-phenyl]-acetamide] |
| 21 | O=C(Cc1ccc(CO)c(F)c1)NCc1cc(C(F)(F)F)nn1-c1cccc(Cl)c1 [A30, N-[[2-(3-Chlorophenyl)-5-(trifluoromethyl)-2H-pyrazol-3-yl]-methyl]-2-[3-fluoro-4-(hydroxymethyl)-phenyl]-acetamide] |
| 3 | CC(C(=O)NCc1cc(C2CC2)nn1-c1cccc(Cl)c1)c1ccc(CO)c(F)c1 (stereo not shown) [A31, N-[[2-(3-Chlorophenyl)-5-cyclopropyl-2H-pyrazol-3-yl]-methyl]-2-[3-fluoro-4-(hydroxymethyl)-phenyl]-propionamide] |
| 2 | CC(C(=O)NCc1cc(C(F)(F)F)nn1-c1cccc(Cl)c1)c1ccc(CO)c(F)c1 (stereo not shown) [A33, N-[[2-(3-Chlorophenyl)-5-(trifluoromethyl)-2H-pyrazol-3-yl]-methyl]-2-[3-fluoro-4-(hydroxymethyl)-phenyl]-propionamide] |
| 37 | C[C@H](C(=O)NCc1cc(C(F)(F)F)nn1-c1cccc(Cl)c1)c1ccc(CO)c(F)c1 [A34, (2S)-N-[[2-(3-Chlorophenyl)-5-(trifluoromethyl)-2H-pyrazol-3-yl]-methyl]-2-[3-fluoro-4-(hydroxymethyl)-phenyl]-propionamide] |
